Laboratory results: patent publication US9120812B2, “Pyrimidooxazocine derivatives as mTOR-inhibitors” (SANOFI, priority 2012, dated 2015)
pIC50: −log10 of the molar value.

Key:
[1] = biological target: mTOR (human recombinant aa mTOR 1360-2549) (Homo sapiens (Human), UniProt P42345); assay: mTOR enzymatic test by TR-FRET (phosphorylation of GFP-4EBP1); type: biochemical
Outline: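 TR-FRET detection of GFP-4EBP1 phosphorylation by a terbium-labelled anti-phospho-Thr46 antibody. Kinase reaction ran 30 min at room temperature, was quenched with EDTA (10 mM final) plus Tb-antibody (2 nM final) and left 60 min. Emission at 520 and 490 nm after 340 nm excitation, reported as the 520/490 ratio.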

PI3Kα (p110α/p85α) = PI3Kα (p110α/p85α) (Homo sapiens (Human), UniProt P42336); assay: PI3Kα enzymatic test by measuring the consumption of ATP; type: biochemical
PI3Kα (p110α/p85α), sequence (P42336 whole entry): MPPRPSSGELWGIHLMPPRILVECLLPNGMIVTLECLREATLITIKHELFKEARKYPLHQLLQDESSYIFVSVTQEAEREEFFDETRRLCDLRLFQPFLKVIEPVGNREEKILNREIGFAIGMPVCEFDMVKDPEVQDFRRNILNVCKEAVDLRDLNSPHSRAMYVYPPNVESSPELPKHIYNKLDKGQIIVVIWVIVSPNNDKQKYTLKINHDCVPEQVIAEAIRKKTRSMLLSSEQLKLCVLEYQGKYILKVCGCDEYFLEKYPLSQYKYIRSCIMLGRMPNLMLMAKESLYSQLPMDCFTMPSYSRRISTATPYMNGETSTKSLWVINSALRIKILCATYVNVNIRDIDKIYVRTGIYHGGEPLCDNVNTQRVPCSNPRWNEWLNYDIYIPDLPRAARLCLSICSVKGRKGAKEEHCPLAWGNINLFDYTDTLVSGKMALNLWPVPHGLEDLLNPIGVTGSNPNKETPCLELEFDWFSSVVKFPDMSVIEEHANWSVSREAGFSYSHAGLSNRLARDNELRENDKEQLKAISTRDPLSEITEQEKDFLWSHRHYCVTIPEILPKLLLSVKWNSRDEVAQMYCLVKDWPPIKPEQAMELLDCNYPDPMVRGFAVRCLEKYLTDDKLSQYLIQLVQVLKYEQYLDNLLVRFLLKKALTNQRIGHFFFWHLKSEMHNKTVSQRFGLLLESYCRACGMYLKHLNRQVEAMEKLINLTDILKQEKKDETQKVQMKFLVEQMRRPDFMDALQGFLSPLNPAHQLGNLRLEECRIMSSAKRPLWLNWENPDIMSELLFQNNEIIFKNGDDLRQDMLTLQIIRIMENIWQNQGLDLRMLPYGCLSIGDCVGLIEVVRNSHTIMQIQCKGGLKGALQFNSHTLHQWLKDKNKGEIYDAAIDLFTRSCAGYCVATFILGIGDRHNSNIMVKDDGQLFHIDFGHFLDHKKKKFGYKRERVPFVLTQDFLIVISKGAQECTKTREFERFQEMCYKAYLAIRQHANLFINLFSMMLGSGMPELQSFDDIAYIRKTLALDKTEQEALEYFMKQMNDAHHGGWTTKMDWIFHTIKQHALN
PI3Kα (p110α/p85α), sequence (P27986 whole entry partner): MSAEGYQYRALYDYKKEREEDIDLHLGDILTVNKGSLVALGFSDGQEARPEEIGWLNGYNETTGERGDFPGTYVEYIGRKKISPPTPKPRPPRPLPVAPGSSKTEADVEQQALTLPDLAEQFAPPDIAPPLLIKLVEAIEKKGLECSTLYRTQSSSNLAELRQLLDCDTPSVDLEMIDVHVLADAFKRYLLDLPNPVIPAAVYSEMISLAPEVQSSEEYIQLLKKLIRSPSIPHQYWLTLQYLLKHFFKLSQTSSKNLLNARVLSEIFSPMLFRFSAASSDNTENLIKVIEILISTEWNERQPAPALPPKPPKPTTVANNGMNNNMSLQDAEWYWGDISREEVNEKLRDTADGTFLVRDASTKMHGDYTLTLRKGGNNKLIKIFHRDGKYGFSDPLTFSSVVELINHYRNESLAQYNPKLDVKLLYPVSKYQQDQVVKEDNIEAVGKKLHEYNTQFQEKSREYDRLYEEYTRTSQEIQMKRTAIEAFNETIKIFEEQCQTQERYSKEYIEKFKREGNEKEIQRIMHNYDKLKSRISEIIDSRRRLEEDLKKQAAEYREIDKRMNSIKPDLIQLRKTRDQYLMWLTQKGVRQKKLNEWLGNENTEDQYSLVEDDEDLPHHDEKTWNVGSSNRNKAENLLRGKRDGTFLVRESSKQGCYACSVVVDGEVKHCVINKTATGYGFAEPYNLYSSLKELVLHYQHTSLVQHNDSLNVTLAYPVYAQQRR
Outline: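 p110α/p85α (1.7 μg/ml) with 50 μM PIP2 and 2 μM ATP in pH 7.5 Tris buffer with EGTA, MgCl2, Chaps, DTT; reaction 90 min. Remaining ATP measured by luciferin/luciferase luminescence; IC50 from threefold serial dilutions spanning at least 10 000-fold.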

U87MG tumour cells = assay: Test of in vitro proliferation of U87MG tumour cells; type: cell-based; conditions: Homo sapiens, U-87 MG, 72 h, U87MG cells, 72 hours; read-out: U87 Cell Proliferation IC50
Protocol: Model 4: Test of in vitro Proliferation of U87MG Tumour Cells.
The cell growth is determined with the reagent CellTiter 96 AQueous One Solution Cell Proliferation Assay from Promega (Cat. No. G3581).

Akt-pS473 in U87MG cells = conditions: Homo sapiens, U-87 MG, read-out: U87 Akt-pS473 % Inhibition or IC50, nM (IC50), U87MG cells

mTOR (human recombinant aa mTOR 1360-2549), sequence (P42345 1360-2549): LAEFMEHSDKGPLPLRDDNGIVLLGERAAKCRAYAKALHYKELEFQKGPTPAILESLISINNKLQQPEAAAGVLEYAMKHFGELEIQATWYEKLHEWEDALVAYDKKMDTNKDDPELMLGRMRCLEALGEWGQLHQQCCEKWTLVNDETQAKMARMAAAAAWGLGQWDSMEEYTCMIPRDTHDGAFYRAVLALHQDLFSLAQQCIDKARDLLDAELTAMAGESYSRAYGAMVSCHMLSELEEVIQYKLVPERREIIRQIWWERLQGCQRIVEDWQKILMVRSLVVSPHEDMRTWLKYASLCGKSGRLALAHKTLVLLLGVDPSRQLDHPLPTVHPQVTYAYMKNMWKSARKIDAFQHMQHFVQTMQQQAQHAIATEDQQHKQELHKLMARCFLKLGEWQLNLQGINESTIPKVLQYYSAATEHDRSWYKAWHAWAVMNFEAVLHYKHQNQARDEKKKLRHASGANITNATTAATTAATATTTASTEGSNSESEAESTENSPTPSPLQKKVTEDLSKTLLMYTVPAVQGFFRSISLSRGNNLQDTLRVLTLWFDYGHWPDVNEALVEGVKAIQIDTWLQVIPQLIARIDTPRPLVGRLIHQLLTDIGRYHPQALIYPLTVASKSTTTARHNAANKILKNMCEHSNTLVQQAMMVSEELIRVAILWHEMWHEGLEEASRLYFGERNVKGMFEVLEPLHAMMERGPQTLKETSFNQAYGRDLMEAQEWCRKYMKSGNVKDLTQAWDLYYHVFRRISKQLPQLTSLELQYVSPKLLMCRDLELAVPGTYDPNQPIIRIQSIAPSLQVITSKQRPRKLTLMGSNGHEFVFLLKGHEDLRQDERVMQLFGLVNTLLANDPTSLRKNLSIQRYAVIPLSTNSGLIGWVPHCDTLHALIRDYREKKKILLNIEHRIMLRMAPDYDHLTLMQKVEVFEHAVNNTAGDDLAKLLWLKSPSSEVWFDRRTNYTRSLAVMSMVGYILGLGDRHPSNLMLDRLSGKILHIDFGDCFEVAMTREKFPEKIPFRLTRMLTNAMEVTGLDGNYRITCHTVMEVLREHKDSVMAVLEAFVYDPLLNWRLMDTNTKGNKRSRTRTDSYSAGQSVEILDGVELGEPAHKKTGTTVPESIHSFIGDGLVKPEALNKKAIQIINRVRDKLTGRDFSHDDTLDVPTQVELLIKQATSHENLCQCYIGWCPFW

SMILES	pIC50 [1]	PI3Ka IC50 (PI3Kα (p110α/p85α)) [nM]	pIC50 (U87MG tumour cells)	IC50 (Akt-pS473 in U87MG cells) [nM]
CCN1CC(C)(C)Oc2nc(N3CC4CCC(C3)O4)nc(-c3ccc(NC(=O)OC)cc3)c2C1=O [Example 105, {4-[6-Ethyl-8,8-dimethyl-2-(8-oxa-3-azabicyclo[3.2.1]oct-3-yl)-5-oxo-5,6,7,8-tetrahydro-9-oxa-1,3,6-triazabenzocyclohepten-4-yl]phenyl}carbamic acid methyl ester]	6.74	>10000	5.57	360
CCN1CC(C)(C)Oc2nc(N3CC4CCC(C3)O4)nc(-c3ccc(NC(=O)Nc4ccc(C(F)(F)F)cc4F)cc3)c2C1=O [Example 154, 1-{4-[6-Ethyl-8,8-dimethyl-2-(8-oxa-3-azabicyclo[3.2.1]oct-3-yl)-5-oxo-5,6,7,8-tetrahydro-9-oxa-1,3,6-triazabenzocyclohepten-4-yl]phenyl}-3-(2-fluoro-4-trifluoromethylphenyl)urea]	6.74	>10000	7.01	54
CCN1CC(C)(C)Oc2nc(N3CCOCC3)nc(-c3ccc(NC(=O)OC)cc3)c2C1=O [Example 103, [4-(6-Ethyl-8,8-dimethyl-2-morpholin-4-yl-5-oxo-5,6,7,8-tetrahydro-9-oxa-1,3,6-triazabenzocyclohepten-4-yl)phenyl]carbamic acid methyl ester]	6.71	6590	5.45	425
CCN1CC(C)(C)Oc2nc(N3CC4CCC(C3)O4)nc(-c3ccc(NC(=O)Nc4ccc(N5CCN(C)CC5)cc4)cc3)c2C1=O [Example 205, 1-{4-[6-Ethyl-8,8-dimethyl-2-(8-oxa-3-azabicyclo[3.2.1]oct-3-yl)-5-oxo-5,6,7,8-tetrahydro-9-oxa-1,3,6-triazabenzocyclohepten-4-yl]phenyl}-3-[4-(4-methylpiperazin-1-yl)phenyl]urea]	7.20	3740	7.66	13
CCN1CC(C)(C)Oc2nc(N3CC4CCC(C3)O4)nc(-c3ccc(NC(=O)Nc4ccccn4)cc3F)c2C1=O [Example 84, 1-{4-[6-Ethyl-8,8-dimethyl-2-(8-oxa-3-azabicyclo[3.2.1]oct-3-yl)-5-oxo-5,6,7,8-tetrahydro-9-oxa-1,3,6-triazabenzocyclohepten-4-yl]-3-fluorophenyl}-3-pyridin-2-ylurea]	7.64	>10000	6.12	255
CCN1CC(C)(C)Oc2nc(N3CC4CCC(C3)O4)nc(-c3ccc(NC(=O)O[C@H](C)CO)c(F)c3)c2C1=O [Example 62, {4-[6-Ethyl-8,8-dimethyl-2-(8-oxa-3-azabicyclo[3.2.1]oct-3-yl)-5-oxo-5,6,7,8-tetrahydro-9-oxa-1,3,6-triazabenzocyclohepten-4-yl]-2-fluorophenyl}carbamic acid (R)-2-hydroxy-1-methylethyl ester]	6.18	>10000	< 5.00	> 1000
CCN1CC(C)(C)Oc2nc(N3CCOC[C@@H]3C)nc(-c3ccc(NC(=O)Nc4ccc(N5CCN(C)CC5)nc4)c(F)c3)c2C1=O [Example 171, 1-{4-[6-Ethyl-8,8-dimethyl-2-((S)-3-methylmorpholin-4-yl)-5-oxo-5,6,7,8-tetrahydro-9-oxa-1,3,6-triazabenzocyclohepten-4-yl]-2-fluorophenyl}-3-[6-(4-methylpiperazin-1-yl)pyridin-3-yl]urea]	7.43	308	7.04	41
CCN1CC(C)(C)Oc2nc(N3CC4CCC(C3)O4)nc(-c3ccc(NC(=O)Nc4ccc(OC)nn4)c(F)c3)c2C1=O [Example 140, 1-{4-[6-Ethyl-8,8-dimethyl-2-(8-oxa-3-azabicyclo[3.2.1]oct-3-yl)-5-oxo-5,6,7,8-tetrahydro-9-oxa-1,3,6-triazabenzocyclohepten-4-yl]-2-fluorophenyl}-3-(6-methoxypyridazin-3-yl)urea]	7.35	>10000	6.33	507
CCN1CC(C)(C)Oc2nc(N3CC4CCC(C3)O4)nc(-c3ccc(NC(=O)Nc4cc(C)on4)cc3)c2C1=O [Example 116, 1-{4-[6-Ethyl-8,8-dimethyl-2-(8-oxa-3-azabicyclo[3.2.1]oct-3-yl)-5-oxo-5,6,7,8-tetrahydro-9-oxa-1,3,6-triazabenzocyclohepten-4-yl]phenyl}-3-(5-methylisoxazol-3-yl)urea]	7.38	4310	6.55	98
CCNC(=O)Nc1ccc(-c2nc(N3CC4CCC(C3)O4)nc3c2C(=O)N(CCC(=O)OC(C)(C)C)CC(C)(C)O3)cc1 [Example 120, 3-[4-[4-(3-Ethylureido)phenyl]-8,8-dimethyl-2-(8-oxa-3-azabicyclo[3.2.1]oct-3-yl)-5-oxo-7,8-dihydro-5H-9-oxa-1,3,6-triazabenzocyclohepten-6-yl]propionic acid tert-butyl ester]	6.45	>10000	5.65	1180
CCN1CC(C)(C)Oc2nc(N3CC4CCC(C3)O4)nc(-c3ccc(NC(=O)Nc4ccc(N5CCN(C)CC5)nc4)c(F)c3)c2C1=O [Example 195, 1-{4-[6-Ethyl-8,8-dimethyl-2-(8-oxa-3-azabicyclo[3.2.1]oct-3-yl)-5-oxo-5,6,7,8-tetrahydro-9-oxa-1,3,6-triazabenzocyclohepten-4-yl]-2-fluorophenyl}-3-[6-(4-methylpiperazin-1-yl)pyridin-3-yl]urea]	7.21	6800	7.24	45
CCN1CC(C)(C)Oc2nc(N3CCOC[C@@H]3C)nc(-c3ccc(NC(=O)OCCO)cc3)c2C1=O [Example 186, {4-[6-Ethyl-8,8-dimethyl-2-((S)-3-methylmorpholin-4-yl)-5-oxo-5,6,7,8-tetrahydro-9-oxa-1,3,6-triazabenzocyclohepten-4-yl]phenyl}carbamic acid 2-hydroxyethyl ester]	7.60	3940	6.58	60
CCN1CC(C)(C)Oc2nc(N3CC4CCC(C3)O4)nc(-c3ccc(NC(=O)Nc4ccc(CN5CCCCC5)cc4)cc3)c2C1=O [Example 203, 1-{4-[6-Ethyl-8,8-dimethyl-2-(8-oxa-3-azabicyclo[3.2.1]oct-3-yl)-5-oxo-5,6,7,8-tetrahydro-9-oxa-1,3,6-triazabenzocyclohepten-4-yl]phenyl}-3-(4-piperidin-1-ylmethylphenyl)urea]	7.02	9610	7.37	111
CCN1CC(C)(C)Oc2nc(N3CC4CCC(C3)O4)nc(-c3ccc(NC(=O)Nc4ccncc4)cc3F)c2C1=O [Example 71, 1-{4-[6-Ethyl-8,8-dimethyl-2-(8-oxa-3-azabicyclo[3.2.1]oct-3-yl)-5-oxo-5,6,7,8-tetrahydro-9-oxa-1,3,6-triazabenzocyclohepten-4-yl]-3-fluorophenyl}-3-pyridin-4-ylurea]	7.68	>10000	6.68	59
